This is an account of results in PubChem BioAssay AID1996.

Molecules are shown by their SMILES. In brackets after ≈: the same amount, converted by molar mass.

The conditions of this data set: buffer; pH 7.4; 200.0 µM.
In general, kinetic solubility refers to solubility judged after dilution from a stock solution rather than from solid. Molecule `O=C(COC(=O)c1cc(Br)ccc1O)NC12CC3CC(CC(C3)C1)C2` showed a kinetic solubility of 3.1 µg/mL (≈ 7.59 µM).
Regarding `CCOC(=O)C(=O)Nc1cc(C)on1`, the solubility (kinetic) is more than 29.7 µg/mL.
On to `Cc1ccc(NC(=O)CSc2cccc[n+]2[O-])c([N+](=O)[O-])c1`, for which the solubility (kinetic) is more than 47.9 µg/mL.
For `Cc1[nH]c(=O)[nH]c(=O)c1Sc1ccccc1[N+](=O)[O-]` the value was 20.5 µg/mL (≈ 73.4 µM).
The value for `CC1(C)CC(=O)C2=C(C1)Nc1ccccc1[S@]2=O` was more than 39.2 µg/mL.
The value for `O=[N+]([O-])c1cccc(/C=C/c2ccc3cccc(O)c3n2)c1` was less than 0.3 µg/mL; that for `CN(CC(=O)NC1CC1)S(=O)(=O)c1ccc(F)cc1` was more than 42.9 µg/mL.
`Cc1cccc(NC(=O)CSc2cccc[n+]2[O-])c1C` registered a kinetic solubility of 39.7 µg/mL (≈ 138 µM).
For `Cc1cccc(NC(=O)c2cc(C)nc3ccccc23)c1` the value was 0.7 µg/mL (≈ 2.53 µM).
For `COCCCN(C(=S)Nc1ccc(OC)cc1)C(C)c1ccncc1` (configuration not stated) the value was more than 53.9 µg/mL; for `COc1ccc(Cl)cc1NC(=S)Nc1ccc(Cl)cn1`, 0.2 µg/mL (≈ 0.609 µM); for `CCOC(=O)COc1ccc2c(c1)c(C(C)=O)c(C)n2-c1ccccc1`, less than 0.8 µg/mL.
For `O=C(C1CCC1)N1CCN(c2cccc(C(F)(F)F)c2)CC1` the value was 38.8 µg/mL (≈ 124 µM); for `Cc1ccnc(NC(=O)c2ccc3c(c2)OCO3)c1`, more than 38.4 µg/mL.
Consider `Cc1ccc(F)c(NC(=O)CCOc2ccccc2C)c1`, for which the solubility (kinetic) came out at 25.5 µg/mL (≈ 88.7 µM).
The value for `COC(=O)c1ccc(OCC(=O)NCCC2=CCCCC2)c(OC)c1` was more than 52.1 µg/mL; that for `O=C(NCc1ccc2c(c1)OCO2)Nc1cccc(Cl)c1` was 1.3 µg/mL (≈ 4.27 µM); that for `CC1(C)CC(=O)C2=C(C1)Nc1ccccc1NC2c1ccccc1F` (configuration not stated) was 10.5 µg/mL (≈ 31.2 µM).
For `c1ccc2[nH]c(CCCc3nc4ccccc4[nH]3)nc2c1` the value was 29.7 µg/mL (≈ 107 µM); for `Cc1ccc(C2=NC3(CCCC3)NC2=S)cc1`, 2.2 µg/mL (≈ 9 µM).
With `Oc1cccc(Nc2nc(-c3ccccc3)nc3ccccc23)c1`, the solubility (kinetic) turned out to be 2.2 µg/mL (≈ 7.02 µM).
For `Cn1cc(S(=O)(=O)N2CCCC2)cc1C(=O)O` the value was more than 38.7 µg/mL; for `CCC(CC)C(=O)c1c[nH]c(C(=O)NC2CCCCCC2)c1`, 2 µg/mL (≈ 6.57 µM); for `CN(C)c1ccc(-c2nc3ccccc3c(=O)[nH]2)cc1`, 1.9 µg/mL (≈ 7.16 µM).
For `CC(C)CCN(CCC(C)C)C(=O)Cc1c(O)c2ccccc2[nH]c1=O` the value was 2.7 µg/mL (≈ 7.53 µM); for `COc1ccc(NC(=O)C2C3CC/C=C\CCC32)cc1` (configuration not stated), less than 0.6 µg/mL; for `N#C/C(=C\Nc1ccc(Cl)cc1)S(=O)(=O)c1ccccn1`, 8.7 µg/mL (≈ 27.2 µM).
`Cc1ccc(S(=O)(=O)N2CCN(C)CC2)c2nsnc12` came in with a solubility (kinetic) of more than 46.9 µg/mL.
For `CC(C)C(=O)Nc1ccc(S(=O)(=O)Nc2ccccn2)cc1` the value was more than 47.9 µg/mL.
The value for `CCc1nonc1NC(=O)c1oc2c(C)c(C)ccc2c1C` was 0.6 µg/mL (≈ 2 µM); that for `Clc1cccc(C2NCc3ccccc3-n3cccc32)c1` (configuration not stated) was 3.5 µg/mL (≈ 11.9 µM).
For `O=C(O)c1ccc(Nc2nc(-c3cccnc3)cs2)cc1` the value was more than 44.6 µg/mL.
`Cc1ccc(S(=O)(=O)N2CCN(CC(=O)N3CCCC3)CC2)c(C)c1` yielded a kinetic solubility of more than 54.8 µg/mL.
On to `CCCCOc1ccc(-c2c(C#N)c(N)[nH]c(=S)c2C#N)cc1`, for which the solubility (kinetic) worked out at 35.6 µg/mL (≈ 110 µM).
The value for `Cc1nn(CC(=O)Nc2ccc(N3CCOCC3)cc2)c(C)c1[N+](=O)[O-]` was more than 53.9 µg/mL; that for `CCOc1ncccc1C(=O)Nc1ccc(S(=O)(=O)N2CC(C)CC(C)C2)cc1` (configuration not stated) was 0.9 µg/mL (≈ 2.16 µM); that for `CCOC(=O)c1ccc(N2C(=O)C3CCCN3C2=S)cc1` (configuration not stated) was 41 µg/mL (≈ 135 µM).
Take `O=C(CSc1cc(Cl)ccc1Cl)NCCN1C(=O)CSC1=O`: the solubility (kinetic) is more than 56.9 µg/mL.
Take `Cc1ccc(C(C)NC(=O)c2cccs2)cc1` (configuration not stated): the solubility (kinetic) stood at 20.7 µg/mL (≈ 84.4 µM).
For `Cc1cccc(C(=O)NCCCNC(=O)c2ccccn2)c1` the value was more than 44.6 µg/mL; for `COc1ccc(NC(=O)C#Cc2ccccc2)cc1`, 5.2 µg/mL (≈ 20.7 µM).
Regarding `C=CCn1c(SCc2ccc(C(=O)O)cc2)nc2sc(C)c(C)c2c1=O`, the kinetic solubility is more than 58 µg/mL.
The value for `Cc1nc2ccccc2nc1OCC(=O)Nc1ccc(F)cc1` was 33 µg/mL (≈ 106 µM); that for `c1ccc(-c2nc3nc4ccccc4nc3n2CC2CCCO2)cc1` (configuration not stated) was more than 49.6 µg/mL; that for `Cc1ccc(NC(=O)C=NOCC(=O)Nc2cc(C)cc(C)c2)cc1` was 3.5 µg/mL (≈ 10.3 µM).
The molecule `CCc1ccc(NC(=O)C(=O)NCc2ccccn2)cc1` gave a solubility (kinetic) of 16.1 µg/mL (≈ 56.8 µM).
For `COc1ccc(C(=O)Nc2cc(-c3ccc(C)cc3)no2)cc1` the value was less than 0.3 µg/mL.
For `Cc1cc(C)n2nc(SCC(=O)N3CCCC3)nc2n1` the value was more than 43.7 µg/mL.
`CC(Oc1ccccc1F)C(=O)NC1CCS(=O)(=O)C1` (configuration not stated): the solubility (kinetic) is more than 45.2 µg/mL.
For `O=C(c1ccc(COCC(F)(F)F)o1)N1CCCC1` the value was 40.3 µg/mL (≈ 145 µM); for `Cc1ccc(C)c(C(=O)CSc2nc(C)cc(=O)[nH]2)c1`, 27.5 µg/mL (≈ 95.4 µM); for `O=C(O)c1ccn(COc2ccc(Br)cc2)n1`, more than 44.6 µg/mL.
